Where two headings read alike, the source gives them in different places.
Key:
[1] = system: castrated male ICR mice; assay: In vivo mouse model of efficacy and selectivity (castrated mice, tissue wet weights); settings: for % Efficacy: (ANOVA, p < 0.05): Levator Ani muscle wet weight vs castrated vehicle-only control x100, 10 mg/kg/d, two weeks; for Seminal vesicle and/or prostate weight gain: tissue selectivity indicator, castrated mice
Method: Male ICR mice (8 weeks old) are castrated according to approved procedures (Taconic, N.Y.) and allowed to waste for eight weeks. Age-matched sham-operated mice are also prepared. (Sham-operated mice are animals that have been exposed to the same surgical procedures as castrated animals except their testes are not removed.) Animals are housed in a temperature-controlled room (24° C.) with a reversed 12 hour light/dark cycle (dark 10:00/22:00) and water and food are available ad libitum.
Test compounds are administered to the animals using conventional vehicles. For example, for oral dosing 1% Sodium Carboxymethylcellulose (CMC)+0.25% Tween 80 in sterile H2O can be used for oral formulation and 6% Ethyl-alcohol (EtOH)+94% cyclodexitrane (CDX) can be used for subcutaneous injections. Castrated mice treated with Testosteron Enanthate (TE) (10 mg/kg/d) are used as a treatment positive control whereas castrated mice treated only with vehicle are used as treatment negative control. In addition, sham-operated mice treated with vehicle only are used as control for the surgical method.
Test animals are dosed over a two week timeframe, orally or subcutaneously, with, for example, 0.3, 1, 3, 10 or 30 mg/kg/day of a compound of the present invention. After the two-week treatment, as an indicator of activity the wet weight of the Levator Ani muscle in the test group is determined and compared to the weight in the castrated, vehicle-only control group. The percent efficacy is then calculated as follows: (Wet weight in treatment group/Wet weight in control group)×100 As an indicator of tissue selective activity, the wet weight of the seminal vesicle from test animals is similarly compared to the weight of the seminal vesicles from the castrated, vehicle-only group. In addition, a comparison of the wet weight of the prostate glands from the drug-treated group, to the wet weight of the prostate glands removed from the castrated, vehicle-only group, may also be used as an indicator of tissue selective activity.
Table II (see below) provides % efficacy data for a select sample of exemplified compounds of the present invention in an animal model essentially as described above. Animal models of efficacy and selectivity similar to those described above can be readily designed and performed by the ordinarily skilled artisan, for example, Eisenberg and Gilbert, J Pharmacol Exp Ther. 1950, 99(1), 38-44, provides an alternative rat model that may be employed to show in vivo efficacy.)

[2] = molecular target: T1, human AR (androgen receptor) (Homo sapiens, UniProt P10275); assay: Steroid hormone nuclear receptor binding assay (AR binding)
T1 construct: expressed in transfected cells; host or cells: 293 cells (293-AR lysate)
T1 sequence (P10275 1-920): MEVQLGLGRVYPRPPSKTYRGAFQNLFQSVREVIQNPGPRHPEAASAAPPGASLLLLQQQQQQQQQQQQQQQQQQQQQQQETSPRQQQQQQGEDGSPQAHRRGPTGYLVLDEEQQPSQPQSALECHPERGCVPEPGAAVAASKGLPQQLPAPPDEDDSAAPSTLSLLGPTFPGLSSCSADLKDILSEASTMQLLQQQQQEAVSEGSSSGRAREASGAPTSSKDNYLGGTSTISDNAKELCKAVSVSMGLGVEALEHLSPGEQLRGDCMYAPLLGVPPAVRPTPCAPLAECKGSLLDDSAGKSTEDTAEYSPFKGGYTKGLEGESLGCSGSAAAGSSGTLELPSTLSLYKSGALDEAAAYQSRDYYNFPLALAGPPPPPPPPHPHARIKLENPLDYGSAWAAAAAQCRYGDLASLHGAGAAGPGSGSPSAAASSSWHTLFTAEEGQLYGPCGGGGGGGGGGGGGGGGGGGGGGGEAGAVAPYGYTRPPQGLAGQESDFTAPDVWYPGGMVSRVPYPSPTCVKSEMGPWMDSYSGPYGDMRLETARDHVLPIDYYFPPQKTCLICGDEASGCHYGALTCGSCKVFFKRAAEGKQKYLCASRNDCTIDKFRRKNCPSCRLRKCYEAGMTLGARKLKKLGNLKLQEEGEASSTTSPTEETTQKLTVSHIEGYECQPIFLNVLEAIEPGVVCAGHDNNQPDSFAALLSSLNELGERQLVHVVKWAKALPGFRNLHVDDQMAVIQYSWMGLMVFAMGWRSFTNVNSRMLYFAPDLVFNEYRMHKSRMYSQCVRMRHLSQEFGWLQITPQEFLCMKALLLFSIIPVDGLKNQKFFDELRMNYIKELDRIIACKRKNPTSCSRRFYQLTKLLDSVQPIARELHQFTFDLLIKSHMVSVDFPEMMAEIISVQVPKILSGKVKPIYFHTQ
Method: Cell lysates from 293 cells overexpressing human GR (glucocorticoid receptor), AR (androgen receptor), MR (mineralocorticoid receptor) or PR (progesterone receptor) are used for competition binding assays to determine Ki values for test compounds. Briefly, competition binding assays are run in a buffer containing 20 mM Hepes, pH 7.6, 0.2 mM EDTA, 75 mM NaCl, 1.5 mM MgCl2, 20% glycerol, 20 mM sodium molybdate, 0.2 mM DTT, 20 ug/ml aprotinin and 20 ug/ml leupeptin, using either 0.3 nM ^3H-dexamethasone for GR binding, 0.36 nM ^3H-methyltrienolone for AR binding, 0.25 nM ^3H-aldosterone for MR binding, or 0.29 nM ^3H-methyltrienolone for PR binding, and either 20 ug 293-GR lysate, 22 ug 293-AR lysate, 20 ug 293-MR lysate or 40 ug 293-PR lysate per well. Competing compounds are added at various concentrations ranging from about 0.01 nM to 10 μM. Non-specific binding is determined in the presence of 500 nM dexamethasone for GR binding, 500 nM aldosterone for MR binding, or 500 nM methyltrienolone for AR and PR binding. The binding reaction (140 μl) is incubated for overnight at 4° C., then 70 μl of cold charcoal-dextran buffer (containing per 50 ml of assay buffer, 0.75 g of charcoal and 0.25 g of dextran) is added to each reaction. Plates are mixed 8 minutes on an orbital shaker at 4° C. Plates are then centrifuged at 3,000 rpm at 4° C. for 10 minutes. An aliquot of 120 μl of the mix is transferred to another 96-well plate and 175 μl of Wallac Optiphase “Hisafe 3” scintillation fluid is added to each well. Plates are sealed and shaken vigorously on an orbital shaker. After an incubation of 2 hrs, plates are read in a Wallac Microbeta counter. The data is used to calculate an IC50 and % Inhibition at 10 μM. The Kd for ^3H-dexamethasone for GR binding, ^3H-methyltrienolone for AR binding, ^3H-aldosterone for MR binding, or ^3H-methyltrienolone for PR binding, is determined by saturation binding. The IC50 values for test compounds are converted to Ki using Cheng-Prusoff equation and the Kd determined by saturation binding assay.
Binding assay protocols for steroid hormone nuclear receptors similar to those described above can be readily designed by the ordinarily skilled artisan.

[3] = molecular target: T2, human androgen receptor (AR) (Homo sapiens, UniProt P10275); assay: C2C12 AR/ARE reporter assay; type: cell-based; settings: for EC50: mouse myoblast C2C12 cells, luciferase reporter, 48 h
T2 construct: expressed in transfected cells; host or cells: mouse myoblast C2C12 cells, transiently co-transfected with FuGENE
T2 sequence (P10275 1-920): T1 sequence (P10275 1-920)
Method: As an indicator of agonist activity in muscle tissue, the C2C12 AR/ARE reporter assay is performed. Briefly, mouse myoblast C2C12 cells are co-transfected using FuGENE™. […] Cells are transfected in T150 cm^2 flasks in DMEM media with 4% or 10% Fetal Bovine Serum (FBS). After a 5 hour incubation, transfected cells are trypsinized, plated in 96 well dishes in DMEM media containing 10% charcoal-stripped FBS, incubated for 2 h and then exposed to various concentrations of test compounds ranging from about 0.01 nM to 10 μM. After 48 h of incubations with compounds, cells are lysed and luciferase activity is determined using standard techniques. Data is fit to a 4 parameter-fit logistics to determine EC50 values. The % efficacy is determined versus maximum stimulation obtained with 10 nM methyltrienolone. […]

[4] = AR binding Ki (nM), 293-AR cell lysate, 3H-methyltrienolone competition
[5] = C2C12, read-out: C2C12 % Efficacy, versus maximum stimulation obtained with 10 nM methyltrienolone, average

| SMILES | % Efficacy: (ANOVA, p < 0.05) ([1]; sc) [%] | Seminal vesicle and/or prostate weight gain [1] | Ki [2, 4] [nM] | Emax [3, 5] [%] | EC50 ([3]; C2C12 EC50(nM), average) [nM] | % Efficacy: (ANOVA, p < 0.05) ([1]; po) [%] | Ki [2] [nM] | Emax ([3]; C2C12, read-out: C2C12 % Efficacy) [%] | EC50 ([3]; average, read-out: C2C12 EC50) [nM] |
| --- | --- | --- | --- | --- | --- | --- | --- | --- | --- |
| Cc1c(N2CCCC2c2cccnc2)ccc(C#N)c1Cl (stereo not drawn) [Example 9] | 186 | no weight gain | 1.3 | 90.7 | 2.6 |  |  |  |  |
| Cc1c(N2CCCC2c2ccc3c(c2)OCO3)ccc(C#N)c1Cl (stereo not drawn) [Example 12] |  | no weight gain | 2.2 | 95.6 | 12.4 | 164 |  |  |  |
| N#Cc1ccc(N2CCCC2c2ccc3c(c2)OCO3)cc1C(F)(F)F (stereo not drawn) [Example 19] |  |  | 17.6 | -12.4 |  |  |  |  |  |
| CC1(c2ccc3c(c2)OCO3)CCCN1c1ccc(C#N)c(C(F)(F)F)c1 (stereo not drawn) [Example 20] |  |  |  |  |  |  | 21.1 | 4.8 | 516 |
| Cc1c(N2CCCC2c2cccc(S(C)(=O)=O)c2)ccc(C#N)c1Cl (stereo not drawn) [Example 21, 2-Chloro-4-[2-(3-methanesulfonyl-phenyl)-pyrrolidin-1-yl]-3-methyl-benzonitrile] |  |  | 3 | 58.1 | 103 |  |  |  |  |
| CC1(C)CC(c2ccc3c(c2)OCO3)N(c2ccc(C#N)c(Cl)c2)C1 (stereo not drawn) [Example 24, 4-[2-(1,3-benzodioxol-5-yl)-4,4-dimethylpyrrolidin-1-yl]-2-chlorobenzonitrile] |  |  | 12.7 | 23.4 | 397 |  |  |  |  |
| Cc1nnc(C2CCCN2c2ccc(C#N)c(Cl)c2C)o1 (stereo not drawn) [Example 25, 2-chloro-3-methyl-4-[2-(5-methyl-1,3,4-oxadiazol-2-yl)pyrrolidin-1-yl]benzonitrile] |  |  | 3.7 | 80.5 | 0.9 |  |  |  |  |
| Cc1c(N2CCCC2c2nnco2)ccc(C#N)c1Cl (stereo not drawn) [Example 26, 2-chloro-3-methyl-4-[2-(1,3,4-oxadiazol-2-yl)-1-pyrrolidinyl]benzonitrile] |  |  | 5.4 | 82.7 | 4.2 |  |  |  |  |
| Cc1noc(C2CCCN2c2ccc(C#N)c(Cl)c2C)n1 (stereo not drawn) [Example 27, 2-chloro-3-methyl-4-[2-(3-methyl-1,2,4-oxadiazol-5-yl)pyrrolidin-1-yl]benzonitrile] |  |  | 1.9 | 87.6 | 0.5 |  |  |  |  |
| Cc1nnc(C2CCCN2c2ccc(C#N)c(Cl)c2C)s1 (stereo not drawn) [Example 28, 2-chloro-3-methyl-4-[2-(5-methyl-1,3,4-thiadiazol-2-yl)pyrrolidin-1-yl]benzonitrile] |  |  | 9 | 74.3 | 24.4 |  |  |  |  |
| Cc1nnc(C2CCCN2c2ccc(C#N)c(Cl)c2C)[nH]1 (stereo not drawn) [Example 29, 2-chloro-3-methyl-4-[2-(5-methyl-4H-1,2,4-triazol-3-yl)pyrrolidin-1-yl]benzonitrile] |  |  | 58.9 | 83.9 | 378 |  |  |  |  |
| Cc1c(N2CCCC2c2nnc(N)o2)ccc(C#N)c1Cl (stereo not drawn) [Example 30, 4-[2-(5-amino-1,3,4-oxadiazol-2-yl)pyrrolidin-1-yl]-2-chloro-3-methylbenzonitrile] |  |  | 18.7 | 95.7 | 37.9 |  |  |  |  |
| Cc1c(N2CC(O)CC2c2ccccc2)ccc(C#N)c1Cl (stereo not drawn) [Example 31, 2-Chloro-3-methyl-4-(4-hydroxy-2-phenyl-pyrrolidin-1-yl)-benzonitrile] |  |  | 8.3 | 91.6 | 20.7 |  |  |  |  |

From patent US7807691B2, “Substituted N-arylpyrrolidines as selective androgen receptor modulators” (Eli Lilly and Company, priority 2005, dated 2010)
